According to patent US9593084B2 (Parion Sciences, Inc., priority 2012, dated 2017):
Where two headings read alike, the source gives them in different places. Marks after values point to notes of the source that are not given here.

Assays:
[1] = target: T1, epithelial sodium channel (Canis lupus familiaris, UniProt A0A8I3MKE6+A0A8I3Q679+Q95165); assay: Inhibition of short-circuit current (ISC) in airway epithelial monolayers in Ussing chambers; format: cell-based, canine
T1 construct: endogenous in cells; host or cells: primary canine bronchial epithelial cells cultured at air-liquid interface
T1 sequence (A0A8I3Q679 1-649): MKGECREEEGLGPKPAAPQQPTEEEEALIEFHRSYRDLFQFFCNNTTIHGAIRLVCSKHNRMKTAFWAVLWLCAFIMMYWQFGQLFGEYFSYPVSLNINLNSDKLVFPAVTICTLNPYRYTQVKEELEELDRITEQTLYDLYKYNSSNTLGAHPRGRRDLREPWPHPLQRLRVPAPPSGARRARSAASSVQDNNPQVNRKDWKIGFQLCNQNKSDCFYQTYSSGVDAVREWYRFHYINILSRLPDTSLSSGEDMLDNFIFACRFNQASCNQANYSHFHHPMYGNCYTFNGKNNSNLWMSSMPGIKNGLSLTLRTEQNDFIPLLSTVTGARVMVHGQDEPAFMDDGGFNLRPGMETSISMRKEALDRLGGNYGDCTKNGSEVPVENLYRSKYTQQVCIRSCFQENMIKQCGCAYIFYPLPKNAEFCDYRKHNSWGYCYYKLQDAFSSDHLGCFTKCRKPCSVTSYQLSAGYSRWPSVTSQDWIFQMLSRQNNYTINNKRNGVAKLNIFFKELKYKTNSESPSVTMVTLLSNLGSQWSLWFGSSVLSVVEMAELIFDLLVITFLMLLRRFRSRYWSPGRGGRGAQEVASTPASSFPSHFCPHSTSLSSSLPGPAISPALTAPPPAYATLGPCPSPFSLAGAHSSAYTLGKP
T1 sequence (Q95165 1-641): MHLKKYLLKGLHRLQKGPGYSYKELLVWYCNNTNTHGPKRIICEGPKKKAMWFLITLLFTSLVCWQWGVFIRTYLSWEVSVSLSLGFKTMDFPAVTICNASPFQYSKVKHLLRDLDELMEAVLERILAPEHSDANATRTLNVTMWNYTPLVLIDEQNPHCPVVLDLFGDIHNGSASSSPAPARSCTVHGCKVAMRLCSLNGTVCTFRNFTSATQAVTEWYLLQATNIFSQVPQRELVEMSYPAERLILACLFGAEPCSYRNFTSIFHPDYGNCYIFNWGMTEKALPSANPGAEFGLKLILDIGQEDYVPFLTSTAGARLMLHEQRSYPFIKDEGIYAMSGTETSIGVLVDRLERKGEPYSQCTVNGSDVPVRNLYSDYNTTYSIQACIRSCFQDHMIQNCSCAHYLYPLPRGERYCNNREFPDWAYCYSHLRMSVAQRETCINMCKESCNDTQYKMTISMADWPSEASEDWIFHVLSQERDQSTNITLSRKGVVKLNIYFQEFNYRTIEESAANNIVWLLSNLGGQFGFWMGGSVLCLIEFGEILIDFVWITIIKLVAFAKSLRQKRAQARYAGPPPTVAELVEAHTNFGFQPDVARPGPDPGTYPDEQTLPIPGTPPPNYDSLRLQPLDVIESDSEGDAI
T1 sequence (A0A8I3MKE6 1-646): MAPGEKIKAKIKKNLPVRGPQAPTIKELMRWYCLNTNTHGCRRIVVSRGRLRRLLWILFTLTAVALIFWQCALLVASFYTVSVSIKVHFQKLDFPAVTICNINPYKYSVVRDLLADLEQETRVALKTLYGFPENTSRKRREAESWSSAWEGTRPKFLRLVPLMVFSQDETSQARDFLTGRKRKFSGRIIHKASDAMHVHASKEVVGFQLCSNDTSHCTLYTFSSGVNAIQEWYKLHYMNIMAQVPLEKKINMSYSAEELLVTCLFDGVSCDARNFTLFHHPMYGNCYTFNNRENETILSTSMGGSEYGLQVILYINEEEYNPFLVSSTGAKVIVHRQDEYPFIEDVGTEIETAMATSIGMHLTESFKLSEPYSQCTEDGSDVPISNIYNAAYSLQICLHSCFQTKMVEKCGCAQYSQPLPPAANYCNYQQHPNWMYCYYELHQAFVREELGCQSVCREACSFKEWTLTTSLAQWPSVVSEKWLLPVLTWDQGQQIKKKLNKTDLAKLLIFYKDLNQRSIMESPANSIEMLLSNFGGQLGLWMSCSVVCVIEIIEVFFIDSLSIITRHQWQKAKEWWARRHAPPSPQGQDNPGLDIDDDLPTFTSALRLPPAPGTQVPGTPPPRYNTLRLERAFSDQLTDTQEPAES
Experimental: One assay used to assess mechanism of action and/or potency of the compounds of the present invention involves the determination of lumenal drug inhibition of airway epithelial sodium currents measured under short circuit current (ISC) using airway epithelial monolayers mounted in Using chambers. Cells obtained from freshly excised human, dog, sheep or rodent airways are seeded onto porous 0.4 micron Snapwelff Inserts (CoStar), cultured at air-liquid interface (ALI) conditions in hormonally defined media, and assayed for sodium transport activity (ISC) while bathed in Krebs Bicarbonate Ringer (KBR) in Using chambers. All test drug additions are to the lumenal bath with half-log dose addition protocols (from 1×10^−11 M to 3×10^−5 M), and the cumulative change in ISC (inhibition) recorded. All drugs are prepared in dimethyl sulfoxide as stock solutions at a concentration of 1×10^−2 M and stored at −20° C. […] After the maximal concentration ([…]) is administered, the lumenal bath is exchanged three times with fresh drug-free KBR solution, and the resultant ISC measured after each wash for approximately 5 minutes in duration. Reversibility is defined as the percent return to the baseline value for sodium current after the third wash. All data from the voltage clamps are collected via a computer interface and analyzed off-line.
Dose-effect relationships for all compounds are considered and analyzed by the Prism 3.0 program.

Sheep MCC = assay: Mucociliary clearance (MCC) studies in sheep; format: in vivo; settings: sheep, 0.24 nmol/kg (3 μM); for effect on MCC compared to vehicle: 4 h post-dose; for AUC (% Cl-h) / Initial Slope (4.0-4.5 h): aerosol, MCC at 4 h post-dose
Experimental: The animal model that has been used most often to measure changes in MCC is the sheep model. The effect of compounds for enhancing mucociliary clearance (MCC) can be measured using an in vivo model described by Sabater et al., Journal of Applied Physiology, 1999, pp. 2191-2196, incorporated herein by reference.
In these studies, adult sheep were restrained and nasally intubated with an endotracheal tube. Aerosolized test articles were administered over 10-15 minutes to sheep. Radiolabeled ^99mTc-sulfur colloid (TSC, 3.1 mg/mL; containing approximately 20 mCi) was then administered at a specified time four or eight hours after test article. The radiolabeled aerosol was administered through the endotracheal tube for about 5 minutes. The sheep were then extubated, and total radioactive counts in the lung were measured every 5 minutes for a 1-hour observation period. The rate of radiolabel clearance from the lung is representative of the MCC rate in the animal. The advantage of this system is that it closely simulates the human lung environment. The model also allows for the collection of simultaneous PK/PD information through plasma and urine sampling over the test period. There are also several techniques to measure the drug concentrations on the airway surface during the MCC measurements. These include the collection of exhaled breath condensates or a filter paper method to obtain ASL via bronchoscopy.
The ovine model described above was used to evaluate the in vivo effects (efficacy/durability) of aerosol-delivered test agent on MCC. Treatments consisting of either 4 mL of test agent or test agent in combination with HS were tested. To determine if combining HS with test agent enhanced MCC, HS was administered immediately following test agent administration. Test solutions were aerosolized using a Raindrop nebulizer at a flowrate of eight liters per minute and connected to a dosimetry system consisting of a solenoid valve and a source of compressed air (20 psi). The deposited dose of drug in sheep lungs after an aerosol administration using the Raindrop nebulizer is estimated to be 8-15% of the dose. Using a Raindrop nebulizer, radiolabeled TSC was administered over approximately 3 minutes either 4 or 8 hours after drug treatment to evaluate efficacy/durability. Radioactive counts were measured in a central region in the right lung at 5 min intervals for one hour with a gamma camera. Three methods of analysis were utilized, 1) initial rate of clearance (slope) over the first 30 min fitted using linear regression 2) area under the curve for % clearance over time over one hour, and 3) the maximum clearance obtained in one hour.

[2] = canine bronchial epithelial cells, short-circuit current, read-out: Potency of Sodium Channel Blockade IC50

| IC50 [1, 2] [nM] | Structure (SMILES) | also measured |
| --- | --- | --- |
| 7.6 | N=C(NCCCCc1ccc2cc(C[C@H](N)C(=O)Nc3ccc(CCCNC[C@H](O)[C@@H](O)[C@H](O)[C@H](O)CO)cc3)ccc2c1)NC(=O)c1nc(Cl)c(N)nc1N [Compound 99, 3,5-diamino-N—(N-(4-(6-((S)-2-amino-3-oxo-3-(4-(3-((2S,3R,4R,5R)-2,3,4,5,6-pentahydroxyhexylamino)propyl)phenylamino)propyl)naphthalen-2-yl)butyl)carbamimidoyl)-6-chloropyrazine-2-carboxamide] | – |
| 47 | N=C(NCCCCc1ccc(C[C@H](N)C(=O)Nc2ccc(CCCCCCN(C[C@H](O)[C@@H](O)[C@H](O)[C@H](O)CO)C[C@H](O)[C@@H](O)[C@H](O)[C@H](O)CO)cc2)c2ccccc12)NC(=O)c1nc(Cl)c(N)nc1N [Compound 48, 3,5-diamino-N—(N-(4-(4-((S)-2-amino-3-(4-(6-(bis((2S,3R,4R,5R)-2,3,4,5,6-pentahydroxyhexyl)amino)hexyl)phenylamino)-3-oxopropyl)naphthalen-1-yl)butyl)carbamimidoyl)-6-chloropyrazine-2-carboxamide] | effect on MCC compared to vehicle (Sheep MCC): Similarly Enhance MCC Compared to Vehicle; AUC (% Cl-h) (Sheep MCC): 15.4* (2) % Cl-h; Initial Slope (4.0-4.5 h) (Sheep MCC): 29.8* (2) |
| 17.9 | CN(C)CCCc1ccc(NC(=O)[C@@H](N)Cc2ccc3cc(CCCCNC(=N)NC(=O)c4nc(Cl)c(N)nc4N)ccc3c2)cc1 [Compound 103, (S)-3,5-diamino-N—(N-(4-(6-(2-amino-3-(4-(3-(dimethylamino)propyl)phenylamino)-3-oxopropyl)naphthalen-2-yl)butyl)carbamimidoyl)-6-chloropyrazine-2-carboxamide] | – |
| 2.3 | CCCCCCN(CCCc1ccc(NC(=O)[C@@H](N)Cc2ccc(CCCCNC(=N)NC(=O)c3nc(Cl)c(N)nc3N)c3c2CCCC3)cc1)C[C@H](O)[C@@H](O)[C@H](O)[C@H](O)CO [Compound 123, 3,5-diamino-N—(N-(4-(4-((S)-2-amino-3-(4-(3-(hexyl((2S,3R,4R,5R)-2,3,4,5,6-pentahydroxyhexyl)amino)propyl)phenylamino)-3-oxopropyl)-5,6,7,8-tetrahydronaphthalen-1-yl)butyl)carbamimidoyl)-6-chloropyrazine-2-carboxamide] | effect on MCC compared to vehicle (Sheep MCC): Similarly Enhance MCC Compared to Vehicle; AUC (% Cl-h) (Sheep MCC): 14.4* (2) % Cl-h; Initial Slope (4.0-4.5 h) (Sheep MCC): 29.2* (2) |
| – | NC(=NC(=O)c1nc(Cl)c(N)nc1N)NCCCCc1ccc(C[C@H](N)C(=O)Nc2ccc(CCCNC[C@H](O)[C@@H](O)[C@H](O)[C@H](O)CO)cc2)c2c1CCCC2 [Compound 131] | IC50 [1]: 6 nM |
| 19.4 | N=C(NCCCCc1ccc2cc(C[C@H](N)C(=O)O)ccc2c1)NC(=O)c1nc(Cl)c(N)nc1N [Compound 80, (S)-2-amino-3-(6-(4-(3-(3,5-diamino-6-chloropyrazine-2-carbonyl)guanidino)butyl)naphthalen-2-yl)propanoic acid] | – |
| 20.7 | CN(C)CCCc1ccc(NC(=O)[C@@H](N)Cc2ccc(CCCCNC(=N)NC(=O)c3nc(Cl)c(N)nc3N)c3ccccc23)cc1 [Compound 23, (S)-3,5-diamino-N—(N-(4-(4-(2-amino-3-(4-(3-(dimethylamino)propyl)phenylamino)-3-oxopropyl)naphthalen-1-yl)butyl)carbamimidoyl)-6-chloropyrazine-2-carboxamide] | – |
| 15.5 | N=C(NCCCCc1ccc(C[C@H](N)C(=O)Nc2ccc(CCCCCCNC[C@H](O)[C@@H](O)[C@H](O)[C@H](O)CO)cc2)c2ccccc12)NC(=O)c1nc(Cl)c(N)nc1N [Compound 53, 3,5-diamino-N—(N-(4-(4-((S)-2-amino-3-oxo-3-(4-(6-((2S,3R,4R,5R)-2,3,4,5,6-pentahydroxyhexylamino)hexyl)phenylamino)propyl)naphthalen-1-yl)butyl)carbamimidoyl)-6-chloropyrazine-2-carboxamide] | – |
| 10.6 | CCCCCCN(CCCCCCc1ccc(NC(=O)[C@@H](N)Cc2ccc(CCCCNC(=N)NC(=O)c3nc(Cl)c(N)nc3N)c3ccccc23)cc1)C[C@H](O)[C@@H](O)[C@H](O)[C@H](O)CO [Compound 58, 3,5-diamino-N—(N-(4-(4-((S)-2-amino-3-(4-(6-(hexyl((2S,3R,4R,5R)-2,3,4,5,6-pentahydroxyhexyl)amino)hexyl)phenylamino)-3-oxopropyl)naphthalen-1-yl)butyl)carbamimidoyl)-6-chloropyrazine-2-carboxamide] | – |
